In patent publication US12692262B2, “Substituted ureas as orexin receptor agonists” (Merck Sharp & Dohme LLC, priority 2020, dated 2026):

Target: T1, human OX2R (Homo sapiens, UniProt O43614)
T1 construct: expressed in transfected cells; host or cells: CHO (Chinese hamster ovary) cells grown under G418 selection
T1 sequence (O43614 1-444): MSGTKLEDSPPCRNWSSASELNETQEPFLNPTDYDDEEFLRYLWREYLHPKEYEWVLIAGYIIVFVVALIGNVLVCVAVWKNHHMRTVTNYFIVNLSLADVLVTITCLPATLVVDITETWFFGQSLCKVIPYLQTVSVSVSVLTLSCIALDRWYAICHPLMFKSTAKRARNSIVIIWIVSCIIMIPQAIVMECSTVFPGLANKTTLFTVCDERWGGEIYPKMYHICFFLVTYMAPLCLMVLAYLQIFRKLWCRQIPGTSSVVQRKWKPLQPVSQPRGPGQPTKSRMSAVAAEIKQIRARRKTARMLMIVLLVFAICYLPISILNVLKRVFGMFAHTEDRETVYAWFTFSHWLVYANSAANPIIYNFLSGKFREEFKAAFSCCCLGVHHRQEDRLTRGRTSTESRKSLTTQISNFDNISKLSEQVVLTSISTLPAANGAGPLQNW
Experiment: IPOne (IP-1 accumulation) assay in CHO cells expressing human OX2R
Format: cell-based
Details: for EC50: CHO cells expressing human OX2R, IP-One assay, 2 h incubation, four parameter logistic fit, read-out: OX2R Potency, EC50; for % of maximum agonist effect (relative to Orexin A): percent effect vs mean max effect of a reference compound at 1 uM (100% activity vs Orexin A), human OX2R
Outline: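 Agonist EC50 values come from the inflection point of four-parameter logistic curves. Read-out is IP-1 accumulation detected with lysis buffer plus D2 and AB-cryptate reagents (HTRF), in CHO cells engineered to express human OX2R.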

EC50	% of maximum agonist effect (relative to Orexin A)	Compound
0.0081 µM	100.1%	CC[C@H](CC(F)(F)F)NC(=O)N(CC)C(c1cc(-c2cn3ccnc3c(OC)n2)c(OC)cn1)C(F)(F)F (stereo partly drawn) [Example 6-2, 1-ethyl-1-(2,2,2-trifluoro-1-(5-methoxy-4-(8-methoxyimidazo[1,2-a]pyrazin-6-yl)pyridin-2-yl)ethyl)-3-((R)-1,1,1-trifluoropentan-3-yl)urea]
0.0013 µM	100.7%	CCN(C(=O)N[C@@H](CCC(F)(F)F)C(F)(F)F)C(c1ncc(OC)c(-c2cn3ccnc3c(OC)n2)n1)C(F)(F)F (stereo partly drawn) [Example 10-4, 1-ethyl-3-((S)-1,1,1,5,5,5-hexafluoropentan-2-yl)-1-(2,2,2-trifluoro-1-(5-methoxy-4-(8-methoxyimidazo[1,2-a]pyrazin-6-yl)pyrimidin-2-yl)ethyl)urea]
0.0226 µM	101.0%	CC[C@H](CCC(F)F)NC(=O)N(CC)[C@@H](c1cc(-c2cn3cc(C)nc3c(OC)n2)c(OC)cn1)C(F)(F)F [Example 6-1, 3-((R)-6,6-difluorohexan-3-yl)-1-ethyl-1-((S)-2,2,2-trifluoro-1-(5-methoxy-4-(8-methoxy-2-methylimidazo[1,2-a]pyrazin-6-yl)pyridin-2-yl)ethyl)urea]
0.0075 µM	99.6%	CCN(C(=O)N[C@@H](CCC(F)(F)F)C(F)(F)F)[C@H](C)c1cc(-c2cc(OC)c3ncoc3c2)c(OC)cn1 [Example 9-4, 1-ethyl-3-((S)-1,1,1,5,5,5-hexafluoropentan-2-yl)-1-((R)-1-(5-methoxy-4-(4-methoxybenzo[d]oxazol-6-yl)pyridin-2-yl)ethyl)urea]
0.248 µM	102.1%	CCC(CCC(F)(F)F)NC(=O)N(CC)[C@H](C)c1cccc(-c2cn3ccnc3cc2C)c1 (stereo partly drawn) [Example 8-8, 1-ethyl-1-((R)-1-(3-(7-methylimidazo[1,2-a]pyridin-6-yl)phenyl)ethyl)-3-(6,6,6-trifluorohexan-3-yl)urea]
0.851 µM	93.7%	CC[C@H](CCC(F)(F)F)NC(=O)N(CC)[C@H](C)c1cccc(-c2cc(Cl)n3nccc3c2)c1 [Example 7-5, 1-((R)-1-(3-(7-chloropyrazolo[1,5-a]pyridin-5-yl)phenyl)ethyl)-1-ethyl-3-((R)-6,6,6-trifluorohexan-3-yl)urea]
0.0048 µM	100.4%	C=CC[C@H](NC(=O)N(CC)C(c1cc(-c2cn3ccnc3c(OC)n2)c(OC)cn1)C(F)(F)F)C(F)(F)F (mixture of isomers) [Example 5-1, 1-ethyl-1-(2,2,2-trifluoro-1-(5-methoxy-4-(8-methoxyimidazo[1,2-a]pyrazin-6-yl)pyridin-2-yl)ethyl)-3-((S)-1,1,1-trifluoropent-4-en-2-yl)urea]
0.595 µM	97.8%	CC[C@H](CCC(F)(F)F)NC(=O)N(CC)[C@H](C)c1cccc(-c2cc(COC)c3nccn3c2)c1 [Example 7-4, 1-ethyl-1-((R)-1-(3-(8-(methoxymethyl)imidazo[1,2-a]pyridin-6-yl)phenyl)ethyl)-3-((R)-6,6,6-trifluorohexan-3-yl)urea]
0.0478 µM	96.1%	CC[C@H](CCC(F)(F)F)NC(=O)N(CC)[C@H](C)c1ccc(OC)c(-c2cnc3[nH]ccc3c2)c1 [Example 8-5, 1-ethyl-1-((R)-1-(4-methoxy-3-(1H-pyrrolo[2,3-b]pyridin-5-yl)phenyl)ethyl)-3-((R)-6,6,6-trifluorohexan-3-yl)urea]
0.109 µM	100.1%	CCN(C(=O)N[C@@H](CCC(F)(F)F)C(F)(F)F)[C@H](C)c1cccc(-c2cc(OC)c3ncc(Cl)n3c2Cl)c1 [Example 8-14, 1-((R)-1-(3-(3,5-dichloro-8-methoxyimidazo[1,2-a]pyridin-6-yl)phenyl)ethyl)-1-ethyl-3-((S)-1,1,1,5,5,5-hexafluoropentan-2-yl)urea]

The remaining lines, values behind:

Compound	EC50	% of maximum agonist effect (relative to Orexin A)
CCN(C(=O)NC(COC(C)=O)C(F)(F)F)[C@H](C)c1cccc(-c2cn3ccnc3c(OC)n2)c1 (stereo partly drawn) [Example 22, 2-(3-ethyl-3-((R)-1-(3-(8-methoxyimidazo[1,2-a]pyrazin-6-yl)phenylethyl)ureido)-3,3,3-trifluoropropyl acetate]	0.0253 µM	97.0%
CCN(C(=O)N[C@@H](COC1CC1)C(F)(F)F)[C@@H](c1cc(-c2cn3cc(C)nc3c(OC)n2)c(OC)cn1)C(F)(F)F [Example 2-18, 3-((S)-3-cyclopropoxy-1,1,1-trifluoropropan-2-yl)-1-ethyl-1-((S)-2,2,2-trifluoro-1-(5-methoxy-4-(8-methoxy-2-methylimidazo[1,2-a]pyrazin-6-yl)pyridin-2-yl)ethyl)urea]	0.0299 µM	99.6%
CCNC(=O)N(CC)[C@H](C)c1cccc(-c2cc(OC)c3nccn3c2)c1 [Example 2-68, (R)-1,3-diethyl-1-(1-(3-(8-methoxyimidazo[1,2-a]pyridin-6-yl)phenyl)ethyl)urea]	0.179 µM	83.3%
COc1cnc([C@H](N(C(=O)N[C@@H](CCC(F)(F)F)C(F)(F)F)C2CC2)C(F)(F)F)cc1-c1cn2cc(C)nc2c(OC)n1 [Example 2-19, 1-cyclopropyl-3-((S)-1,1,1,5,5,5-hexafluoropentan-2-yl)-1-(2,2,2-trifluoro-1-(5-methoxy-4-(8-methoxy-2-methylimidazo[1,2-a]pyrazin-6-yl)pyridin-2-yl)ethyl)urea]	0.0057 µM	102.0%
CCN(C(=O)N[C@@H](CCC(F)(F)F)C(F)(F)F)C(c1cnc(OC)c(-c2cn3ccnc3c(OC)n2)c1)C(F)(F)F (stereo partly drawn) [Example 2-50, 1-ethyl-3-((S)-1,1,1,5,5,5-hexafluoropentan-2-yl)-1-(2,2,2-trifluoro-1-(6-methoxy-5-(8-methoxyimidazo[1,2-a]pyrazin-6-yl)pyridin-3-yl)ethyl)urea]	0.0014 µM	100.5%
CC[C@H](CCC(F)(F)F)NC(=O)N(CC(F)F)C(c1cc(-c2cn3ncnc3c(OC)n2)c(OC)cn1)C(F)(F)F (stereo partly drawn) [Example 2-20, 1-(2,2-difluoroethyl)-1-(2,2,2-trifluoro-1-(5-methoxy-4-(8-methoxy-[1,2,4]triazolo[1,5-a]pyrazin-6-yl)pyridin-2-yl)ethyl)-3-((R)-6,6,6-trifluorohexan-3-yl)urea]	0.341 µM	99.7%
CCN(C(=O)N[C@@H](C)C(F)(F)F)[C@@H](c1cc(-c2cn3ccnc3c(OC)n2)c(OC)cn1)C(F)(F)F [Example 2-1, 1-ethyl-1-((S)-2,2,2-trifluoro-1-(5-methoxy-4-(8-methoxyimidazo[1,2-a]pyrazin-6-yl)pyridin-2-yl)ethyl)-3-((S)-1,1,1-trifluoropropan-2-yl)urea]	0.0068 µM	100.1%
CCN(C(=O)NC(CCC(F)(F)F)C(C)(F)F)[C@H](C)c1cccc(-c2cn3ccnc3c(OC)n2)c1 (stereo partly drawn) [Example 2-55, 1-ethyl-1-((R)-1-(3-(8-methoxyimidazo[1,2-a]pyrazin-6-yl)phenyl)ethyl)-3-(2,2,6,6,6-pentafluorohexan-3-yl)urea]	0.129 µM	99.4%
CC[C@H](CCC(F)(F)F)NC(=O)N(CC)[C@H](C)c1cccc(-c2cc3c(c(OC)c2)NCC3)c1 [Example 25, 1-ethyl-1-((R)-1-(3-(7-methoxyindolin-5-yl)phenyl)ethyl)-3-((R)-6,6,6-trifluorohexan-3-yl)urea]	0.619 µM	98.5%
CCN(C(=O)N[C@@H](CCC(F)(F)F)C(F)F)[C@@H](c1cc(-c2cn3cc(C)nc3c(OC)n2)c(OC)cn1)C(F)(F)F [Example 4-1, 1-ethyl-3-((S)-1,1,5,5,5-pentafluoropentan-2-yl)-1-((S)-2,2,2-trifluoro-1-(5-methoxy-4-(8-methoxy-2-methylimidazo[1,2-a]pyrazin-6-yl)pyridin-2-yl)ethyl)urea]	0.0048 µM	101.6%
CCN(C(=O)NC(C(F)F)C1CC1)[C@@H](c1cc(-c2cn3ccnc3c(OC)n2)c(OC)cn1)C(F)(F)F (stereo partly drawn) [Example 2-7, 3-(1-cyclopropyl-2,2-difluoroethyl)-1-ethyl-1-((S)-2,2,2-trifluoro-1-(5-methoxy-4-(8-methoxyimidazo[1,2-a]pyrazin-6-yl)pyridin-2-yl)ethyl)urea]	0.0125 µM	100.1%
CC[C@H](CCC(F)(F)F)NC(=O)N(C(C)C)[C@H](C)c1cccc(-c2cn3ccnc3c(OC)n2)c1 [Example 2-60, 1-isopropyl-1-((R)-1-(3-(8-methoxyimidazo[1,2-a]pyrazin-6-yl)phenyl)ethyl)-3-((R)-6,6,6-trifluorohexan-3-yl)urea]	0.0644 µM	97.4%
CCN(C(=O)N[C@H](C)C1CCC(F)(F)CC1)[C@H](C)c1cccc(-c2cn3ccnc3c(OC)n2)c1 [Example 1-4, 3-((R)-1-(4,4-difluorocyclohexyl)ethyl)-1-ethyl-1-((R)-1-(3-(8-methoxyimidazo[1,2-a]pyrazin-6-yl)phenyl)ethyl)urea]	0.0069 µM	96.1%
